Data: patent US11787830B2, “Crystalline solids of nicotinic acid mononucleotide and esters thereof and methods of making and use” (Metro International Biotech, LLC, priority 2021, dated 2023)
Converted amounts (≈) assume the structure as drawn.

Test: physchem
Experimental: An additional 2 mL of water was added to give a clear solution. […] This was allowed to stir for two days at ambient temperature. The solids were filtered and washed with 15 mL of (2:1 v:v) 1-propanol:water, 15 mL of 1-propanol, then 2×15 mL of methyl tert-butyl ether.

water solubility as ratio water:Compound 2: 50:1 w:w | solubility (water): ~20 mg/mL (≈ 59.7 mM)
Compound: O=C([O-])c1ccc[n+]([C@@H]2O[C@H](COP(=O)(O)O)[C@@H](O)[C@H]2O)c1 [Compound 2, Nicotinic acid mononucleotide]
